{"source": "patent US20260000655A1", "about": "“PHARMACEUTICAL COMPOSITION FOR USE IN PREVENTION OR TREATMENT OF LIFESTYLE-RELATED DISEASE” (priority 2022, published 2026)", "key": {"[1]": {"test_system": "high-fat diet-induced obesity model mice", "test": "H&E staining of mouse tissue", "format": "in vivo", "settings": "metformin 300 mg/kg orally 28 days; compared to control", "experimental": "High-fat diet-induced obesity model mice were prepared in the same manner as in Example 7. Note that the high-fat diet-induced obesity model mice develop liver damage and are thus used as a liver disease model. Then, HPH-15 (10 mg/kg or 100 mg/kg, […]) dissolved in olive oil or metformin (300 mg/kg, […]) was orally administered once a day for 28 days. Olive oil alone was administered as a control. After administration of each for 28 days, the liver, epididymis, and muscle of the high-fat diet-induced obesity model mice were stained with H&E and observed using a microscope. The results of H&E staining of the liver are shown in FIG. 12A, the results of H&E staining of the epididymis are shown in FIG. 12B, and the results of H&E staining of the muscle are shown in FIG. 12C."}, "[2]": {"test_system": "high-fat diet-induced obesity model mice", "test": "Sirius Red staining and collagen amount in mouse tissue", "format": "in vivo", "settings": "HPH-15 10 mg/kg or 100 mg/kg, metformin 300 mg/kg, orally 28 days, Western blotting", "experimental": "High-fat diet-induced obesity model mice were prepared in the same manner as in Example 7. Then, HPH-15 (10 mg/kg or 100 mg/kg, […]) dissolved in olive oil or metformin (300 mg/kg, […]) was orally administered once a day for 28 days. Olive oil alone was administered as a control. After 28 days of administration of each, the liver and the epididymal fat of the high-fat diet-induced obesity model mice were stained with Sirius Red and observed using a microscope.\nFurther, high-fat diet-induced obesity model mice were prepared in the same manner as in Example 7. Then, HPH-15 (10 mg/kg or 100 mg/kg, […]) dissolved in olive oil or metformin (300 mg/kg, […]) was orally administered once a day for 28 days. Olive oil alone was administered as a control. After 28 days of administration of each, equal amounts (50 mg) of tissue pieces were collected from the liver and epididymal adipose tissues of the high-fat diet-induced obesity model mice, transferred to 1.5 mL Eppendorf tubes, and washed twice with PBS. After washing, the tissue pieces were transferred to BIOMASHER II, […] of RIPA buffer was added, and the tissue pieces were homogenized on ice. After homogenization, the tissue pieces were centrifuged (10,000 rpm, 4° C., 5 min) and the supernatant was obtained as a protein solution. The concentration of the proteins thus obtained was corrected based on the protein concentration measured by the BCA method using bicinchoninic acid (BCA), thereby preparing samples for Western blotting. Western blotting was quantified using ImageJ to calculate the amount of collagen."}}, "data": [{"compound": "CN(C)C(=N)N=C(N)N", "note": "[metformin, reference compound]", "values": [{"measurement": "fat area (H&E)", "setting": "[1]", "value": "only slightly reduced the fat area"}, {"measurement": "amount of collagen in the epididymal adipose tissue", "setting": "[2]", "value": "no collagen-reducing effect was confirmed"}, {"measurement": "amount of collagen in the liver tissue", "setting": "[2]", "value": "no collagen-reducing effect was confirmed"}]}]}
